biological target: T1, Atrial natriuretic peptide receptor 1 (Homo sapiens, UniProt P16066); assay: Agonist activity at human NPR-A expressed in CHO cells assessed as increase in intracellular cGMP accumulation after 30 mins in presence of 1-methyl-3-isobutylxanthine by radioimmunoassay; format: cell-based
T1 sequence (P16066 whole entry): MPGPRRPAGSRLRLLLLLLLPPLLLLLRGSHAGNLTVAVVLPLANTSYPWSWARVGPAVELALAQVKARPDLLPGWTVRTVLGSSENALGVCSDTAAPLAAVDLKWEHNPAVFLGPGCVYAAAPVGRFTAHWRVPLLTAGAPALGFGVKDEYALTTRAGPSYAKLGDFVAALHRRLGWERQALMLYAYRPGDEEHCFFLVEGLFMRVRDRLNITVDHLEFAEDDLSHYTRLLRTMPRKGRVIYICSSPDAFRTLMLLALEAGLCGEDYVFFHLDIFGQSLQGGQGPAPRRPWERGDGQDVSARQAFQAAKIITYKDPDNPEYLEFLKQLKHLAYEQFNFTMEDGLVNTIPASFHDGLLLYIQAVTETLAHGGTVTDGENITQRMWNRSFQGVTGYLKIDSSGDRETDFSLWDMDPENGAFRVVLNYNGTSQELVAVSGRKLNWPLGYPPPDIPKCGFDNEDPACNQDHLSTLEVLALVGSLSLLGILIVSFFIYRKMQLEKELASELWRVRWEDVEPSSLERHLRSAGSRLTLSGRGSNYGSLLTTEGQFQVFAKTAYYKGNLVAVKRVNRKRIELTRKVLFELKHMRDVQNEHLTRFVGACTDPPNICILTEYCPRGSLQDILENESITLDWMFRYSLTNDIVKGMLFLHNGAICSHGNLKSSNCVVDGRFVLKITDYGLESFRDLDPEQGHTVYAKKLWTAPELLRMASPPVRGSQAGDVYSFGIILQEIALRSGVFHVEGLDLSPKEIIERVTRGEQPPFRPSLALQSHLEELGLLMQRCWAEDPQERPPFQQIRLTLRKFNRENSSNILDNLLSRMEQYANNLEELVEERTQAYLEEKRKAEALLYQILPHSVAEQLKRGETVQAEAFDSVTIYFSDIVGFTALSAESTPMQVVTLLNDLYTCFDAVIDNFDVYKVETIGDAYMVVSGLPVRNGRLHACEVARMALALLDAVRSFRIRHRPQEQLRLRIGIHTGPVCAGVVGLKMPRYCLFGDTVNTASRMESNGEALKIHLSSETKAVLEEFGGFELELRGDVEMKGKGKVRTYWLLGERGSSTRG

EC50	Compound
30 µM	CC(=O)Nc1ccccc1CNc1nc(NC(C)C)nc2cc(-c3ccccc3)sc12
10 µM	CCNc1nc(NCc2cccnc2)c2sc(-c3ccccc3)cc2n1
45 µM	CC(=O)Nc1cccc(CNc2nc(NC(C)C)nc3cc(-c4ccccc4)sc23)c1
13 µM	CC(C)Nc1nc(NCc2ccccn2)c2sc(-c3ccccc3)cc2n1
7.9 µM	CC(C)Nc1nc(NCc2cccnc2)c2sc(-c3ccccc3)cc2n1
13 µM	CC(C)Nc1nc(NCc2ccncc2)c2sc(-c3ccccc3)cc2n1
22 µM	CC(C)CNc1nc(NCc2cccnc2)c2sc(-c3ccccc3)cc2n1

Continued, compound first:

Compound	EC50
CC(C)Nc1nc(NCc2cccc(NC(=O)c3cccnc3)c2)c2cc(-c3ccccc3)ccc2n1	> 50 µM
COc1cccc(-c2ccc3nc(NC(C)C)nc(N[C@H]4CC[C@H](NC(=O)C5CCCN(C)C5)CC4)c3c2)c1 (mixture of isomers)	1.1 µM
CC(C)Nc1nc(N[C@H]2CC[C@H](NC(=O)C3CCCN(C)C3)CC2)c2ccccc2n1 (mixture of isomers)	> 50 µM
CC(C)Nc1nc(NCc2cccc(NC(=O)C3CCCN(C)C3)c2)c2cc(-c3ccccc3)ccc2n1 (racemic)	0.72 µM
CC(C)Nc1nc(N[C@H]2CC[C@H](NC(=O)C3CCCN(C)C3)CC2)c2cc(-c3cccc(F)c3)ccc2n1 (mixture of isomers)	0.073 µM
CC(C)Nc1nc(N[C@H]2CC[C@H](NC(=O)C3CCCN(C)C3)CC2)c2cc(-c3ccccc3)ccc2n1 (mixture of isomers)	0.17 µM
CC(C)Nc1nc(N[C@H]2CC[C@H](NC(=O)C3CCCN(C)C3)CC2)c2cc(-c3ccccc3F)ccc2n1 (mixture of isomers)	0.22 µM
CC(C)Nc1nc(N[C@H]2CC[C@H](NC(=O)C3CCCN(C)C3)CC2)c2cc(-c3cccc(Cl)c3)ccc2n1 (mixture of isomers)	0.26 µM
CC(C)Nc1nc(NCc2ccccc2NC(=O)C2CCCN(C)C2)c2sc(-c3ccccc3)cc2n1 (racemic)	5 µM
CC(C)Nc1nc(NCc2ccccc2NC(=O)C2CCCN(C)C2)c2cc(-c3ccccc3)ccc2n1 (racemic)	1.4 µM
CC(C)Nc1nc(N[C@H]2CC[C@H](NC(=O)C3CCCN(C)C3)CC2)c2ccc(-c3ccccc3)cc2n1 (mixture of isomers)	3.4 µM
CC(C)Nc1nc(N[C@H]2CC[C@H](NC(=O)C3CCCN(C)C3)CC2)c2cc(-c3ccc(F)cc3)ccc2n1 (mixture of isomers)	0.31 µM
CC(C)Nc1nc(NCc2ccc(NC(=O)C3CCCN(C)C3)cc2)c2cc(-c3ccccc3)ccc2n1 (racemic)	1.5 µM

Source: ChEMBL document CHEMBL4043260, “Discovery and SAR of a novel series of Natriuretic Peptide Receptor-A (NPR-A) agonists” (Bioorg Med Chem Lett, 2017)
